The results in this text go back to US10669269B2, “Substituted N-(1H-indazol-4-yl)imidazo[1,2-a]pyridine-3-carboxamide compounds as type III receptor tyrosine kinase inhibitors” (ARRAY BIOPHARMA INC., priority 2010, dated 2020).

One experiment has as its target T1, cFMS (Homo sapiens, UniProt P07333).
T1 construct: THP-1 cells (human acute monocytic leukemia cell line) were serum-starved for 4 hours; endogenous in cells; host or cells: THP-1 cells (human acute monocytic leukemia cell line)
The experiment is described as follows: cFMS Cell-Based Assay (Example C). Particulars: averaged IC50; phospho-cFMS in THP-1 cells stimulated with 250 ng/mL recombinant human MCSF; read-out: cFMS Cell ELISA IC50. The method, boiled down:
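Phosphotyrosine on cFMS, captured from lysates and quantified by ELISA, reads receptor activation after 1 min of 250 ng/mL human MCSF. Beforehand, THP-1 cells were serum-starved for 4 h and exposed to compound for 1 h (9 points, 3-fold, typically up to 5,000 nM). IC50 from a 4-parameter logistic fit as 50 percent of control.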
(An ELISA detects its analyte on a solid surface through an enzyme-linked reagent.)

The next experiment has as its target T2, PDGFR beta (Homo sapiens, UniProt P09619).
T2 construct: endogenous in cells; host or cells: HS27 human fibroblast cell line
Put plainly: Phospho PDGFR LICOR Cell Assay (Example B). Particulars: averaged IC50; PDGFR beta phosphorylation in HS27 human fibroblast cell line, PDGF-BB stimulation 10 minutes, normalized to total ERK. The class given is cell-based. The method in brief:
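Read-out is in-cell phospho-PDGFRβ/total-ERK infrared immunofluorescence in HS27 fibroblasts. Cells got 1 h compound exposure before a 10 min PDGF-BB challenge. A 4-parameter logistic fit gave IC50 as the concentration yielding 50 percent of control.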

A further experiment has as its target T3, c-KIT (Homo sapiens, UniProt P10721).
T3 construct: M-07e cells (human acute megakaryoblastic leukemia cell line) were serum-starved for 4 hours; endogenous in cells; host or cells: M-07e cells (human acute megakaryoblastic leukemia cell line)
The experiment is described as follows: c-KIT Cell-Based Assay (Example D). Particulars: averaged IC50; phospho-c-KIT in M-07e cells stimulated with 150 ng/ml recombinant human SCF; read-out: cKIT Cell ELISA IC50. The method, boiled down: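 Phospho-c-KIT ELISA readout, calibrated with purified phospho-SCF R, gave IC50 (4-parameter fit, 50% of control). Before lysis, M-07e cells were starved 4 h, exposed 1 h to a 9-point 3-fold series (highest usually 5,000 nM), and stimulated with 150 ng/ml SCF for 4 min.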

Structures can show the parent of a compound that is named as a salt.

The term IC50 denotes the point on the concentration scale where inhibition reaches its midpoint.

T1 sequence (P07333 20-972): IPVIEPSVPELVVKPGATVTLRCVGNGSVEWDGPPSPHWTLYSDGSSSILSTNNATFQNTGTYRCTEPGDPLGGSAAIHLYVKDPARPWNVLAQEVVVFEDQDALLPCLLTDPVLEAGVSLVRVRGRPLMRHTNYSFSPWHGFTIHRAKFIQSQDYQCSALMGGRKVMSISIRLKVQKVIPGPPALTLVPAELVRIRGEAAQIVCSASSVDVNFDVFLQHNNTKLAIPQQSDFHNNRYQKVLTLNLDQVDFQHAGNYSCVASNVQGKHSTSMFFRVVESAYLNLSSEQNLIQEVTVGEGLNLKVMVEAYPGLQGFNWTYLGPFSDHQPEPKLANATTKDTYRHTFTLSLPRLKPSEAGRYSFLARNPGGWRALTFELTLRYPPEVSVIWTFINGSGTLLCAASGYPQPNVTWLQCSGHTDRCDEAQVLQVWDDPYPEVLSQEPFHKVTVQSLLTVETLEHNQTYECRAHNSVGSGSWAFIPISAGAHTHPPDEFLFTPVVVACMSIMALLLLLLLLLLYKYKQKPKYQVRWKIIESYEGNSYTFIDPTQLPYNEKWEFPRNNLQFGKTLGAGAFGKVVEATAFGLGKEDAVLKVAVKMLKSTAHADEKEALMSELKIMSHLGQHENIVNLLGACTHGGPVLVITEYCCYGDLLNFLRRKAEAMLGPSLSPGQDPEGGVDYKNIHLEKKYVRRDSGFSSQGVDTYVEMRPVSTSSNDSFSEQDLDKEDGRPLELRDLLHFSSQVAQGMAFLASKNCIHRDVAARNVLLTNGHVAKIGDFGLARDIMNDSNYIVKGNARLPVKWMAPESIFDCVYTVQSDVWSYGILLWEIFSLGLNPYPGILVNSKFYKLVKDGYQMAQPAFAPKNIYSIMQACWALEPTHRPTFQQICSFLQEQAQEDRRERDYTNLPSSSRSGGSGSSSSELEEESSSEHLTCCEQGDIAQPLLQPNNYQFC
T3 sequence (P10721 26-976): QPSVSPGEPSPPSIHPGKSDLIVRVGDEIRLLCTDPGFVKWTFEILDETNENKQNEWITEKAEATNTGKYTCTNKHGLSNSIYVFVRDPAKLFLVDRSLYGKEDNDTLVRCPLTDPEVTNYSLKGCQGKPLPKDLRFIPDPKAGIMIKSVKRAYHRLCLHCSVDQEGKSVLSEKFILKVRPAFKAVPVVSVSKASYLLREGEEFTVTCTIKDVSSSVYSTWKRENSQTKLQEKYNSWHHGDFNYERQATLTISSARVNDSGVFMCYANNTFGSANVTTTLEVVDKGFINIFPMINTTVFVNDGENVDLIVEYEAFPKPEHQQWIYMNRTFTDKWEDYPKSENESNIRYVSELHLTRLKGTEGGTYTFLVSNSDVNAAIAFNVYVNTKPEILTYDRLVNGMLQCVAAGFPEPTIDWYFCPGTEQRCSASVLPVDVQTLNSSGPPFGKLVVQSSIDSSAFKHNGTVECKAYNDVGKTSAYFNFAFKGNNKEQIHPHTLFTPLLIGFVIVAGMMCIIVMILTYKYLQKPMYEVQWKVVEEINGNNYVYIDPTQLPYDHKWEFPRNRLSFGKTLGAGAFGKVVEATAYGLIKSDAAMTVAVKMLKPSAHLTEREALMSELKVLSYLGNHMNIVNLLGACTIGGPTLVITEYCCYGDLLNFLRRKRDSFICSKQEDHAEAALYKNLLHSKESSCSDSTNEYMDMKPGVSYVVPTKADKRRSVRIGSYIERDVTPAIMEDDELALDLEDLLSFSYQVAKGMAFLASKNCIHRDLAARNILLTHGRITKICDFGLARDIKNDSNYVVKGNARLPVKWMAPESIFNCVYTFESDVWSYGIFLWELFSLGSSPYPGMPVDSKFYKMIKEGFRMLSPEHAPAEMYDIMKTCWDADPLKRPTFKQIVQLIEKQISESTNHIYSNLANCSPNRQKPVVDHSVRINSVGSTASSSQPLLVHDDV
T2 sequence (P09619 33-1106): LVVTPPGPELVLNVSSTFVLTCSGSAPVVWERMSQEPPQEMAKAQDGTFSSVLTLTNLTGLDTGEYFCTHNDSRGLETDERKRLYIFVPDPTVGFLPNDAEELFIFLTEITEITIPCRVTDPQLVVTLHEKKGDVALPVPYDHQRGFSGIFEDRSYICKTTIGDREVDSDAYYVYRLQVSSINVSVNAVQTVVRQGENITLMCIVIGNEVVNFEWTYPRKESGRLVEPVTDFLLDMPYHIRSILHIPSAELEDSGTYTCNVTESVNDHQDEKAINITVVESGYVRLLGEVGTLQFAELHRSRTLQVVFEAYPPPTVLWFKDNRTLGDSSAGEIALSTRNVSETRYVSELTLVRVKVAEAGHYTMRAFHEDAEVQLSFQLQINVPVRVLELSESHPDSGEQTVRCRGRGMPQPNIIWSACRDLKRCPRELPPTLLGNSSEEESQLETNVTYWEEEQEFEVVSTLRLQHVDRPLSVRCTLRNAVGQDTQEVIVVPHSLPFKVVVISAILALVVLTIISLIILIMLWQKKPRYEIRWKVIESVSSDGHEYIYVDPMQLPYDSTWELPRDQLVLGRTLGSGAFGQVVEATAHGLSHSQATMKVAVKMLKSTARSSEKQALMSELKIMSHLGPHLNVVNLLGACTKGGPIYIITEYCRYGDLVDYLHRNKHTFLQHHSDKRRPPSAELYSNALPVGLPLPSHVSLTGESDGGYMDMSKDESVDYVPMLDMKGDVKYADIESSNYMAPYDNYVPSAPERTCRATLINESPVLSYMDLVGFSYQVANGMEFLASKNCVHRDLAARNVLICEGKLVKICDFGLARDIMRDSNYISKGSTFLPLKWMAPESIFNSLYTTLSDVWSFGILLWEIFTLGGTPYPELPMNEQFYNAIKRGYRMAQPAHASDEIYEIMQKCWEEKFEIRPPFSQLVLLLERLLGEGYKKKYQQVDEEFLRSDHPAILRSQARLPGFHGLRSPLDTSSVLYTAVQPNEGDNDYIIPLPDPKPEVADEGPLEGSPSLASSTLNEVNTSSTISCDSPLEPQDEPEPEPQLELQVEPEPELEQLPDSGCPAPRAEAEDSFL

Consider `CN1CCN(CCOc2ccn3c(C(=O)Nc4cccc5c4cnn5Cc4cccc(C#N)c4)cnc3c2)CC1` [Example 99, N-(1-(3-cyanobenzyl)-1H-indazol-4-yl)-7-(2-(4-methylpiperazin-1-yl)ethoxy)imidazo[1,2-a]pyridine-3-carboxamide], for which the IC50 on cFMS worked out at 5.6 nM; at PDGFR beta, 6.4 nM; on c-KIT, 11.4 nM.
The like results for `COCCOc1ccn2c(C(=O)Nc3cccc4c3cnn4Cc3cccc(OCc4ccccc4)c3)cnc2c1` [Example 119, N-(1-(3-(benzyloxy)benzyl)-1H-indazol-4-yl)-7-(2-methoxyethoxy)imidazo[1,2-a]pyridine-3-carboxamide] were, in that order, 26.3 nM, 17.4 nM and 23 nM.
For `COc1cccc(Cn2nc(C)c3c(NC(=O)c4cnc5cc(OCCN6CCN(C)CC6)ccn45)cccc32)n1` [Example 87, N-(1-((6-methoxypyridin-2-yl)methyl)-3-methyl-1H-indazol-4-yl)-7-(2-(4-methylpiperazin-1-yl)ethoxy)imidazo[1,2-a]pyridine-3-carboxamide] the same measures were 4.9 nM, 77.7 nM and 372 nM.
The like results for `COCCOc1ccn2c(C(=O)Nc3cccc4c3cnn4Cc3ccc(OC)cc3)cnc2c1` [Example 114, N-(1-(4-methoxybenzyl)-1H-indazol-4-yl)-7-(2-methoxyethoxy)imidazo[1,2-a]pyridine-3-carboxamide] were, in that order, 24.6 nM, 9.3 nM and 8.7 nM.
For the compound `COCCOc1ccn2c(C(=O)Nc3cccc4c3cnn4CC3CC3)cnc2c1` [Example 110, N-(1-(cyclopropylmethyl)-1H-indazol-4-yl)-7-(2-methoxyethoxy)imidazo[1,2-a]pyridine-3-carboxamide], the IC50 turned out to be 380 nM on cFMS, 1000 nM on PDGFR beta and 168 nM at c-KIT.
The like results for `Cc1nn(Cc2cc(C)n(C(C)C)n2)c2cccc(NC(=O)c3cnc4cc(OCCN5CCN(C)[C@@H](C)C5)ccn34)c12` [Example 29, (S)-7-(2-(3,4-dimethylpiperazin-1-yl)ethoxy)-N-(1-((1-isopropyl-5-methyl-1H-pyrazol-3-yl)methyl)-3-methyl-1H-indazol-4-yl)imidazo[1,2-a]pyridine-3-carboxamide] were, in that order, 28.6 nM, 44.1 nM and 162 nM.
For `COCCOc1ccn2c(C(=O)Nc3cccc4c3cnn4Cc3ccc(C)nc3)cnc2c1` [Example 124, 7-(2-methoxyethoxy)-N-(1-((6-methylpyridin-3-yl)methyl)-1H-indazol-4-yl)imidazo[1,2-a]pyridine-3-carboxamide] the same measures were 8.3 nM, 6.9 nM and 9.5 nM.
On to `COCCOc1ccn2c(C(=O)Nc3cccc4c3cnn4Cc3ccc(C(F)(F)F)cc3)cnc2c1` [Example 120, 7-(2-methoxyethoxy)-N-(1-(4-(trifluoromethyl)benzyl)-1H-indazol-4-yl)imidazo[1,2-a]pyridine-3-carboxamide], for which the IC50 at cFMS is 34.4 nM; against PDGFR beta, 7.7 nM; on c-KIT it was 14.5 nM.
For `Cc1nn(Cc2ccn(C(C)C)n2)c2cccc(NC(=O)c3cnc4cc(OCCN5CCN(C)CC5)ccn34)c12` [Example 48, N-(1-((1-isopropyl-1H-pyrazol-3-yl)methyl)-3-methyl-1H-indazol-4-yl)-7-(2-(4-methylpiperazin-1-yl)ethoxy)imidazo[1,2-a]pyridine-3-carboxamide bis hydrochloride] the same measures were 13.3 nM, 47.7 nM and 45.1 nM.
The like results for `Cc1cccc(Cn2nc(C)c3c(NC(=O)c4cnc5cc(OCCN6CCNCC6)ccn45)cccc32)n1` [Example 64, N-(3-methyl-1-((6-methylpyridin-2-yl)methyl)-1H-indazol-4-yl)-7-(2-(piperazin-1-yl)ethoxy)imidazo[1,2-a]pyridine-3-carboxamide] were, in that order, 9.7 nM, 94.1 nM and 1010 nM.
The like results for `COCCOc1ccn2c(C(=O)Nc3c(Br)ccc4c3cnn4Cc3ccccc3)cnc2c1` [Example 134, N-(1-Benzyl-5-bromo-1H-indazol-4-yl)-7-(2-methoxyethoxy)imidazo[1,2-a]pyridine-3-carboxamide] were, in that order, 3.1 nM, 2.4 nM and 11 nM.
Consider `COCCOc1ccn2c(C(=O)Nc3cccc4c3cnn4Cc3cccc(C)n3)cnc2c1` [Example 142, 7-(2-methoxyethoxy)-N-(1-((6-methylpyridin-2-yl)methyl)-1H-indazol-4-yl)imidazo[1,2-a]pyridine-3-carboxamide], for which the 50% inhibitory concentration (IC50) on cFMS worked out at 6.9 nM; at PDGFR beta it was 14.2 nM; on c-KIT, 6.1 nM.
For `Cc1nn(Cc2csc(C(C)C)n2)c2cccc(NC(=O)c3cnc4cc(OCCN5CCN(C)[C@@H](C)C5)ccn34)c12` [Example 30, (S)-7-(2-(3,4-dimethylpiperazin-1-yl)ethoxy)-N-(1-((2-isopropylthiazol-4-yl)methyl)-3-methyl-1H-indazol-4-yl)imidazo[1,2-a]pyridine-3-carboxamide] the same measures were 17.6 nM, 17.4 nM and 65.3 nM.
As to `COCCOc1ccn2c(C(=O)Nc3cccc4c3cnn4Cc3ccccn3)cnc2c1` [Example 112, 7-(2-methoxyethoxy)-N-(1-(pyridin-2-ylmethyl)-1H-indazol-4-yl)imidazo[1,2-a]pyridine-3-carboxamide], the IC50 amounted to 33.7 nM on cFMS, 16.7 nM against PDGFR beta and 68.9 nM on c-KIT.
In the case of `Cc1cccc(Cn2ncc3c(NC(=O)c4cnc5cc(OCCN6CCN(C)CC6)ccn45)ccc(Cl)c32)n1` [Example 101, N-(7-chloro-1-((6-methylpyridin-2-yl)methyl)-1H-indazol-4-yl)-7-(2-(4-methylpiperazin-1-yl)ethoxy)imidazo[1,2-a]pyridine-3-carboxamide trihydrochloride], the IC50 at cFMS stood at 43.6 nM; at PDGFR beta, 23.7 nM; on c-KIT, 30.5 nM.
Consider `Cc1cccc(Cn2nc(C)c3c(NC(=O)c4cnc5cc(OCCN6CCOCC6)ccn45)cccc32)n1` [Example 59, N-(3-methyl-1-((6-methylpyridin-2-yl)methyl)-1H-indazol-4-yl)-7-(2-morpholinoethoxy)imidazo[1,2-a]pyridine-3-carboxamide], for which the values for the IC50 at cFMS, at PDGFR beta and at c-KIT were 19.4 nM, 19.3 nM and 1490 nM, respectively.
Take `CN1CCN(CCOc2ccn3c(C(=O)Nc4cccc5c4cnn5Cc4cccn(C)c4=O)cnc3c2)CC1` [Example 104, N-(1-((1-methyl-2-oxo-1,2-dihydropyridin-3-yl)methyl)-1H-indazol-4-yl)-7-(2-(4-methylpiperazin-1-yl)ethoxy)imidazo[1,2-a]pyridine-3-carboxamide dihydrochloride]: the figures for the IC50 at cFMS, against PDGFR beta and at c-KIT were 33.7 nM, 78.4 nM and 398 nM, respectively.
Regarding `COCCOc1ccn2c(C(=O)Nc3cccc4c3cnn4Cc3ccccc3)cnc2c1` [Example 156, N-(1-benzyl-1H-indazol-4-yl)-7-(2-methoxyethoxy)imidazo[1,2-a]pyridine-3-carboxamide], the values for the IC50 on cFMS, at PDGFR beta and at c-KIT were 5.7 nM, 5.7 nM and 12.5 nM, respectively.
Consider `COCCOc1ccn2c(C(=O)Nc3cccc4c3cnn4CC3CCCNC3)cnc2c1` (stereo not drawn) [Example 131, 7-(2-methoxyethoxy)-N-(1-(piperidin-3-ylmethyl)-1H-indazol-4-yl)imidazo[1,2-a]pyridine-3-carboxamide hydrochloride], for which the IC50 at cFMS was determined as 993 nM; on PDGFR beta, 682 nM; at c-KIT it was 5000 nM.
For `COCCOc1ccn2c(C(=O)Nc3cccc4c3cnn4Cc3cccc(C)c3)cnc2c1` [Example 143, 7-(2-methoxyethoxy)-N-(1-(3-methylbenzyl)-1H-indazol-4-yl)imidazo[1,2-a]pyridine-3-carboxamide] the same measures were 4.8 nM, 12 nM and 58.9 nM.
`Cc1cccc(Cn2nc(C)c3c(NC(=O)c4cnc5cc(OCC(O)CO)ccn45)cccc32)n1` (stereo not drawn) [Example 58, 7-(2,3-dihydroxypropoxy)-N-(3-methyl-1-((6-methylpyridin-2-yl)methyl)-1H-indazol-4-yl)imidazo[1,2-a]pyridine-3-carboxamide]: the IC50 amounted to 21.9 nM at cFMS, 915 nM against PDGFR beta and 6870 nM on c-KIT.
For `CCOc1ccn2c(C(=O)Nc3cccc4c3cnn4Cc3ccccc3)cnc2c1` [Example 127, N-(1-benzyl-1H-indazol-4-yl)-7-ethoxyimidazo[1,2-a]pyridine-3-carboxamide] the same measures were 14.9 nM, 1.7 nM and 67.8 nM.
